In the supplement of paper PMC10307832:

Tests used:
Assay in all cases: relative viability (nuclei count vs DMSO), 5 days (fraction); higher = more cells survive
[1] = compound: CC1=CC=C(C=C1)C(=O)CN2C3=C(CCCC3)SC2=N [Pifithrin_alpha] + COc1cccc2cc(-c3nc([C@H]4CC[C@H](C(=O)O)CC4)n4ncnc(N)c34)[nH]c12 [OSI-027] (partner 0.5 µM)
Outline: (§1)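 Relative viability equals treated-well nuclei counts divided by vehicle-well nuclei counts. Counts came from 4× images of lung cancer cell lines grown in 1536-well plates for 5 days after pin-tool dosing on the day after seeding. Dosing used one drug alone or a fixed anchor-drug dose plus five library-drug doses (not always all listed) in √10 steps, and values are medians of duplicate plates.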

Axitinib + Luminespib = compound: CNC(=O)c1ccccc1Sc1ccc2c(/C=C/c3ccccn3)n[nH]c2c1 [Axitinib] + CCNC(=O)c1noc(-c2cc(C(C)C)c(O)cc2O)c1-c1ccc(CN2CCOCC2)cc1 [Luminespib] (partner 0.01 µM)
Outline: as §1

Axitinib + OSI-027 = compound: CNC(=O)c1ccccc1Sc1ccc2c(/C=C/c3ccccn3)n[nH]c2c1 [Axitinib] + COc1cccc2cc(-c3nc([C@H]4CC[C@H](C(=O)O)CC4)n4ncnc(N)c34)[nH]c12 [OSI-027] (partner 0.5 µM)
Outline: as §1

Bemcentinib + Pictilisib = compound: Nc1nc(Nc2ccc3c(c2)CC[C@@H](N2CCCC2)CC3)nn1-c1cc2c(nn1)-c1ccccc1CCC2 [Bemcentinib] + CS(=O)(=O)N1CCN(Cc2cc3nc(-c4cccc5[nH]ncc45)nc(N4CCOCC4)c3s2)CC1 [Pictilisib] (partner 1 µM)
Outline: as §1

Cell Line: NCI-H650
- relative viability ([1]; first compound 3.162 µM): 0.51
- relative viability ([1]; first compound 10 µM): 0.582
- relative viability ([1]; first compound 31.62 µM): 0.489
- relative viability ([1]; first compound 100 µM): 0.427
- relative viability (Axitinib + Luminespib; first compound 0.005 µM): 0.798
- relative viability (Axitinib + Luminespib; first compound 0.01581 µM): 0.766
- relative viability (Axitinib + Luminespib; first compound 0.05 µM): 0.589
- relative viability (Axitinib + Luminespib; first compound 0.1581 µM): 0.764
- relative viability (Axitinib + Luminespib; first compound 0.5 µM): 0.822
- relative viability (Axitinib + OSI-027; first compound 0.005 µM): 0.533
- relative viability (Axitinib + OSI-027; first compound 0.01581 µM): 0.486
- relative viability (Axitinib + OSI-027; first compound 0.05 µM): 0.517
- relative viability (Axitinib + OSI-027; first compound 0.1581 µM): 0.571
- relative viability (Axitinib + OSI-027; first compound 0.5 µM): 0.584
- relative viability (Bemcentinib + Pictilisib; first compound 0.04 µM): 0.835
- relative viability (Bemcentinib + Pictilisib; first compound 0.1265 µM): 1.08
- relative viability (Bemcentinib + Pictilisib; first compound 0.4 µM): 0.887
- relative viability (Bemcentinib + Pictilisib; first compound 1.265 µM): 0.766
- relative viability (Bemcentinib + Pictilisib; first compound 4 µM): 0.827
